In brackets after ≈: the same amount, converted by molar mass. Read-outs that look alike come from different tables or passages of the source. A value given as a limit tells only on which side of the number the result lay.

One data set can be described thus: physchem. The conditions noted are these: pH 7.4, aqueous buffer, kinetic from dmso stock. Here is the method:
The kinetic solubility of test compounds in buffer was evaluated using a 96 well filtration plate format. A 500 μM assay solution in PBS, pH7.4 (or other assay buffer, as needed) was generated form a DMSO stock solution (up to 10 mM). Samples were transferred to a 96 Millipore MultiScreen HTS 96-well Filter plate (Cat# MSSLBPC10) mixed by shaking for 1.5 hours and processed by filtration prior to quantitation by HPLC-UV. Amiodarone and testosterone were used as reference controls.

The target in data set [1] is T1, human farnesoid X receptor (Homo sapiens, UniProt Q96RI1).
T1 construct: CMX-farnesoid X receptor (full length human farnesoid X receptor); expressed in transfected cells; host or cells: CV-1 African Green Monkey Kidney cells
T1 sequence (Q96RI1 1-472 isoform Q96RI1-2): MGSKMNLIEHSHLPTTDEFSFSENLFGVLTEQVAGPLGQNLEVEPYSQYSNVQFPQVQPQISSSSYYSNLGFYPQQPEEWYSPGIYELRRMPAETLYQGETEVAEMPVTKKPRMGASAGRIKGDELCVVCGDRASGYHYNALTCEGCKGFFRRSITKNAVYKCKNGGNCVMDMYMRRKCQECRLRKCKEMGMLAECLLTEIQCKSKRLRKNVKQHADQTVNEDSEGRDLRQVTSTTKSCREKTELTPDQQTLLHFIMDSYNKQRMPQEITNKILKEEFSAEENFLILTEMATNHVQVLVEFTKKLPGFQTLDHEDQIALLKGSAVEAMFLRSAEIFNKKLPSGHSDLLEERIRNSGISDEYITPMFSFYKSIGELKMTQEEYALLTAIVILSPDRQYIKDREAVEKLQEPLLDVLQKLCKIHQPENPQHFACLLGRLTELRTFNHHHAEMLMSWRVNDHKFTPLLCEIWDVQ
T1 sequence (P19793 1-462 partner): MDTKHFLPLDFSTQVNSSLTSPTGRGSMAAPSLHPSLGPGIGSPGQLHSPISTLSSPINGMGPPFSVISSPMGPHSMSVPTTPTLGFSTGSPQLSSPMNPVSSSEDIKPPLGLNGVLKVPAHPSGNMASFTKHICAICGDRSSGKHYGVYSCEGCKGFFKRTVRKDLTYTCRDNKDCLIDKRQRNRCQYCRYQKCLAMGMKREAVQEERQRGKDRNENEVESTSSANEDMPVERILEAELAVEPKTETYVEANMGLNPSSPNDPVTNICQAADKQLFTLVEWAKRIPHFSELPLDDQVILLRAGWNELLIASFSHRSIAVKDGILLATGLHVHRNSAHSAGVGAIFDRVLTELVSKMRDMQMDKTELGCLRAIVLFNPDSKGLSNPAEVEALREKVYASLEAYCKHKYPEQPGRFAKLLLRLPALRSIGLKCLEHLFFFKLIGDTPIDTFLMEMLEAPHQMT
As to the kind of experiment: FXR in vitro assays (farnesoid X receptor/ECREx7 co-transfection assay, TR-FRET assay), Table I. It counts as cell-based. The conditions noted are these: for Emax: read-out: % Efficacy. The essentials:
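CV-1 monkey kidney cells transfected for an FXR/ECREx7 luciferase co-transfection reporter; luciferase read 18-20 h later in lysates. 8-point dose-response at ½-log spacing, 4 wells per point; EC50/IC50 from four-parameter Hill fit, averaged over at least 3 independent experiments.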

Where [2] appears, read: agonist activity, one or more of the in vitro assays, read-out: EC50.

A word on the kinetic solubility: it is the concentration staying in solution when a stock, usually in DMSO, is diluted into the medium. The term EC50 denotes the concentration needed to bring the measured effect to its halfway point. With `CC(C)OC(=O)C1=CN(C(=O)N2CCCC(CN3CCOCC3)C2)CC(C)(C)c2c1[nH]c1ccccc21` (centres unmarked) [Example 53, 1-methylethyl 1,1-dimethyl-3{[3-(morpholin-4-ylmethyl)piperidin-1-yl]carbonyl}-1,2,3,6-tetrahydroazepino [4,5-b]indole-5-carboxylate], the solubility (kinetic) at 1.5 h in “physchem” was over 10 µM. Moreover, the EC50 in data set [1] (setting [2]) was in the range of 100 to 1000 nM. For the same compound, the Emax in data set [1] was over 100%.

Turning to `CC(C)OC(=O)C1=CN(C(=O)N2CCNCC2)CC(C)(C)c2c1[nH]c1ccccc21` [Example 26, 1-methylethyl 1,1-dimethyl-3-(piperazin-1-ylcarbonyl)-1,2,3,6-tetrahydroazepino [4,5-b]indole-5-carboxylate], the solubility (kinetic) at 1.5 h in “physchem” is over 10 µM. Also, in data set [1] (setting [2]), the EC50 was in the range of 1000 to 10000 nM. The Emax in data set [1] is over 100%.

For `CC(C)OC(=O)C1=CN(C(=O)c2ccc(C(F)(F)F)c(Cl)c2F)CC(C)(C)c2c1[nH]c1ccccc21` [Example 132, 1-methylethyl 3-{[3-chloro-2-fluoro-4-(trifluoromethyl)phenyl]car-bonyl}-1,1-dimethyl-1,2,3,6-tetrahydroazepino[4,5-b]indole-5-carboxylate], in “physchem”, the solubility (kinetic) at 1.5 h was 1 to 10 µM (≈ 0.523 to 5.23 µg/mL). Besides, in data set [1] (setting [2]), the EC50 is 100 to 1000 nM. In addition, the Emax in data set [1] is over 100%.

On to `CCCN1CCN(C(=O)N2C=C(C(=O)OC(C)C)c3[nH]c4ccccc4c3C(C)(C)C2)CC1` [Example 31], for which, in the data set “physchem”, the solubility (kinetic) at 1.5 h lay within 1 to 10 µM (≈ 0.453 to 4.53 µg/mL). In data set [1] (setting [2]), the EC50 is 100 to 1000 nM. Moreover, in data set [1], the Emax is over 100%.

Regarding `CC(C)OC(=O)C1=CN(C(=O)N2C[C@@H]3C[C@H]2CN3C)CC(C)(C)c2c1[nH]c1ccccc21` [Example 42, 1-methylethyl 1,1-dimethyl-3-{[(1S,4S)-5-methyl-2,5-diazabicyclo[2.2.1]hept-2-yl]carbonyl}-1,2,3,6-tetrahydroazepino [4,5-b]indole-5-carboxylate], the solubility (kinetic) at 1.5 h in “physchem” is over 10 µM. Also, in data set [1] (setting [2]), the EC50 is 100 to 1000 nM. For the same compound, in data set [1], the Emax was over 100%.

On to `CC(C)OC(=O)C1=CN(C(=O)N[C@H]2CCCNC2)CC(C)(C)c2c1[nH]c1ccccc21` [Example 54, 1-mcthylethyl 1,1-dimethyl-3-{[(3S)-piperidin-3-ylamino]carbonyl}-1,2,3,6-tetrahydroazepino[4,5-b]indole-5-carboxylate], for which the solubility (kinetic) at 1.5 h in the data set “physchem” was over 10 µM. The EC50 in data set [1] (setting [2]) fell in the range of 1000 to 10000 nM. Besides, the Emax in data set [1] is 40 to 60%.

For `CCN1CCN(C(=O)N2C=C(C(=O)OC(C)C)c3[nH]c4ccccc4c3C(C)(C)C2)CC1` [Example 25, 1-methylethyl 3-[(4-ethylpiperazin-1-yl)carbonyl]-1,1-dimethyl-1,2,3,6-tetrahydroazepino[4,5-b]indole-5-carboxylate], the solubility (kinetic) at 1.5 h in the data set “physchem” was over 10 µM. In addition, in data set [1] (setting [2]), the EC50 is 10 to 100 nM. Moreover, the Emax in data set [1] was over 100%.

Turning to `CC(C)OC(=O)C1=CN(C(=O)c2ccc(F)c(F)c2)CC(C)(C)c2c1[nH]c1cc(OC(=O)OC(C)(C)C)ccc21` [Example 96, 1-methylethyl 3-[(3,4-difluorophenyl)carbonyl]-8-({[(1,1-dimethylethyl)oxy]carbonyl}oxy)-1,1-dimethyl-1,2,3,6-tetrahydroazepino[4,5-b]indole-5-carboxylate], the solubility (kinetic) at 1.5 h in “physchem” lay within 1 to 10 µM (≈ 0.555 to 5.55 µg/mL). Further, the EC50 in data set [1] (setting [2]) was in the range of 10 to 100 nM. Further, the Emax in data set [1] was over 100%.

Take `CC(C)OC(=O)C1=CN(C(=O)N2CCOCC2)CC(C)(C)c2c1[nH]c1ccccc21` [Example 47, 1-methylethyl 1,1-dimethyl-3-(morpholin-4-ylcarbonyl)-1,2,3,6-tetrahydrazepino[4,5-b]indole-5-carboxylate]: the solubility (kinetic) at 1.5 h in the data set “physchem” is over 10 µM. In data set [1] (setting [2]), the EC50 is 10 to 100 nM. For the same compound, the Emax in data set [1] was over 100%.

For the compound `CC(C)OC(=O)C1=CN(C(=O)c2cc(C(F)(F)F)ccc2C(F)(F)F)CC(C)(C)c2c1[nH]c1ccccc21` [Example 137, 1-methylethyl 3-{[2,5-bis(trifluoromethyl)phenyl]carbonyl}-1,1-dimethyl-1,2,3,6-tetrahydroazepino[4,5-b]indole-5-carboxylate], the solubility (kinetic) at 1.5 h in the data set “physchem” is 0.1 to 1 µM (≈ 0.0538 to 0.538 µg/mL). In addition, the EC50 in data set [1] (setting [2]) was in the range of 100 to 1000 nM. In data set [1], the Emax is over 100%.

Take `CC(C)OC(=O)C1=CN(C(=O)N2CCN(C)CC2)CC(C)(C)c2c1[nH]c1cc(F)ccc21` [Example 35, 1-methylethyl 8-fluoro-1,1-dimethyl-3-[(4-methylpiperazin-1-yl)carbonyl]-1,2,3,6-tetrahydroazepino[4,5-b]indole-5-carboxylate]: in the data set “physchem”, the kinetic solubility at 1.5 h is over 10 µM. Further, in data set [1] (setting [2]), the EC50 lay in the range of 10 to 100 nM. Also, the Emax in data set [1] is over 100%.

Regarding `CC(C)OC(=O)C1=CN(C(=O)c2ccc(F)c(F)c2)CC(C)(C)c2c1[nH]c1cc(OC(=O)NCCN(C)C)ccc21` [Example 93, 1-methylethyl 3-[(3,4-difluorophenyl)carbonyl]-8-[({[2-(dimethylamino)ethyl]amino}carbonyl)oxy]-1,1-dimethyl-1,2,3,6-tetrahydroazepino[4,5-b]indole-5-carboxylate], in “physchem”, the kinetic solubility at 1.5 h was over 10 µM. For the same compound, in data set [1], the EC50 was in the range of 10 to 100 nM and the Emax was over 100%.

`CC(C)OC(=O)C1=CN(C(=O)N2CCC[C@H](CN3CCCCC3)C2)CC(C)(C)c2c1[nH]c1ccccc21` [Example 58]: the kinetic solubility at 1.5 h in the data set “physchem” is over 10 µM. The EC50 in data set [1] (setting [2]) is 1000 to 10000 nM. The Emax in data set [1] is 80 to 100%.

Regarding `CC(C)OC(=O)C1=CN(C(=O)c2cccc(O)c2)CC(C)(C)c2c1[nH]c1ccccc21` [Example 139, 1-methylethyl 3-[(3-hydroxyphenyl)carbonyl]-1,1-dimethyl-1,2,3,6-tetrahydroazepino[4,5-b]indole-5-carboxylate], the kinetic solubility at 1.5 h in “physchem” fell in the range of 1 to 10 µM (≈ 0.418 to 4.18 µg/mL). Moreover, the EC50 in data set [1] (setting [2]) was 10 to 100 nM. For the same compound, the Emax in data set [1] was over 100%.

The compound `CCN(CC)C1CCN(C(=O)N2C=C(C(=O)OC(C)C)c3[nH]c4ccccc4c3C(C)(C)C2)CC1` [Example 33, 1-methylethyl 3-{[4-0 (diethylamino)piperidin-1-yl]carbonyl}-1,1-dimethyl-1,2,3,6-tetrahydroazepino[4,5-b]indole-5-carboxylate] gave a kinetic solubility at 1.5 h in “physchem” of over 10 µM. The EC50 in data set [1] (setting [2]) lay within 1000 to 10000 nM. Also, the Emax in data set [1] lay in the range of 60 to 80%.

`CC(C)OC(=O)C1=CN(C(=O)c2cc(F)cc(C(F)(F)F)c2)CC(C)(C)c2c1[nH]c1ccccc21` [Example 134, 1-methylethyl 3-{[3-fluoro-5-(trifluoromethyl)phenyl]car-bonyl}-1,1-dimethyl-1,2,3,6-tetrahydroazepino[4,5-b]indole-5-carboxylate] had a solubility (kinetic) at 1.5 h in “physchem” of 1 to 10 µM (≈ 0.488 to 4.88 µg/mL). Moreover, the EC50 in data set [1] (setting [2]) lay in the range of 10 to 100 nM. Moreover, the Emax in data set [1] is over 100%.

In the data set “physchem”, `CC(C)OC(=O)C1=CN(C(=O)N2CCC[C@@H](N3CCCCC3)C2)CC(C)(C)c2c1[nH]c1ccccc21` [Example 60, 1-methylethyl 3-[(3′R)-1,3′-bipiperidin-1′-ylcarbonyl]-1,1-dimethyl-1,2,3,6-tetrahydroazepino[4,5-b]indole-5-carboxylate] showed a kinetic solubility at 1.5 h of over 10 µM. Further, the EC50 in data set [1] (setting [2]) fell in the range of 1000 to 10000 nM. For the same compound, the Emax in data set [1] is 60 to 80%.

`CC(C)OC(=O)C1=CN(C(=O)c2cccc(OCCN(C)C)c2)CC(C)(C)c2c1[nH]c1ccccc21` [Example 140, 1-methylethyl 3-[(3-{[2-(dimethylamino)ethyl]oxy}phenyl)carbonyl]-1,1-dimethyl-1,2,3,6-tetrahydroazepino[4,5-b]indole-5-carboxylate] had a kinetic solubility at 1.5 h in “physchem” of over 10 µM. Further, the Emax in data set [1] is over 100%.

On to `CC(C)OC(=O)C1=CN(C(=O)N2CCCC(N(C)C)C2)CC(C)(C)c2c1[nH]c1ccccc21` (centres unmarked) [Example 39, 1-methylethyl 3-{[3-(dimethylamino)piperidin-1-yl]carbonyl}-1,1-dimethyl-1,2,3,6-tetrahydroazepino[4,5-b]indole-5-carboxylate], for which the kinetic solubility at 1.5 h in “physchem” was over 10 µM. In addition, the EC50 in data set [1] (setting [2]) was in the range of 100 to 1000 nM. The Emax in data set [1] was over 100%.

For the origin of these results see US20090203577A1 (EXELIXIS, INC., priority 2005, published 2009).
